In PubChem BioAssay AID2060907 (Molecular Pharmacology Branch, DTP, NCI, 2025):

Tested on: 388556-164-R-J1-PDC complex spheroid viability
Test: Anticancer human tumor 388556-164-R-J1-PDC patient-derived colon adenocarcinoma cell line growth inhibition [RAS]
Settings: for IC50: curve of first compound; for viability, T/C: stronger effect = lower value
How it was run: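 Multi-cell-type spheroids: tumor cells plus HUVEC endothelial cells and mesenchymal stem cells. RAS-pathway inhibitors were combined with targeted agents, each dosed in half-log steps down from clinical Cmax, or from 10 microM when Cmax was unknown.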
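Note: spheroids exposed to compound for 7 days before readout.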
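Throughout, for viability, T/C: 100% = DMSO vehicle control luminescence.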

Molecule CCc1c2c(nc3ccc(O)cc13)-c1cc3c(c(=O)n1C2)COC(=O)[C@]3(O)CC + CCn1c(-c2cccnc2C(C)OC)c2c3cc(ccc31)N1CCOC(CC(NC(=O)C(C(C)C)N(C)C(=O)C3(F)CCN(C(=O)C#CC(C)(C)N(C)C)CC3)C(=O)N3CCCC(N3)C(=O)OCC(C)(C)C2)C1 has an IC50 (second compound 0.000949 µM) of 0.068 µM, an IC50 (second compound 0.003 µM) of 0.0745 µM and an IC50 (second compound 0.00949 µM) of 0.072 µM. For the same molecule, the IC50 (second compound 0.03 µM) was 0.0861 µM, the IC50 (second compound 0.0949 µM) was 0.0695 µM and the IC50 (second compound 0.3 µM) was 0.0467 µM. It also gave a viability, T/C (second compound 0.000949 µM, first compound 0.000949 µM) of 107%, a viability, T/C (second compound 0.000949 µM, first compound 0.003 µM) of 98.7% and a viability, T/C (second compound 0.000949 µM, first compound 0.00949 µM) of 87.1%. It also gave a viability, T/C (second compound 0.000949 µM, first compound 0.03 µM) of 62.1%, a viability, T/C (second compound 0.000949 µM, first compound 0.0949 µM) of 45.8% and a viability, T/C (second compound 0.000949 µM, first compound 0.3 µM) of 32.1%. The viability, T/C (second compound 0.003 µM, first compound 0.000949 µM) was 111%, the viability, T/C (second compound 0.003 µM, first compound 0.003 µM) was 88.7% and the viability, T/C (second compound 0.003 µM, first compound 0.00949 µM) was 83.6%. The viability, T/C (second compound 0.003 µM, first compound 0.03 µM) was 61.4%, the viability, T/C (second compound 0.003 µM, first compound 0.0949 µM) was 47.3% and the viability, T/C (second compound 0.003 µM, first compound 0.3 µM) was 29.1%. For the same molecule, the viability, T/C (second compound 0.00949 µM, first compound 0.000949 µM) was 104%, the viability, T/C (second compound 0.00949 µM, first compound 0.003 µM) was 96.5% and the viability, T/C (second compound 0.00949 µM, first compound 0.00949 µM) was 83.8%. For the same molecule, the viability, T/C (second compound 0.00949 µM, first compound 0.03 µM) was 63.6%, the viability, T/C (second compound 0.00949 µM, first compound 0.0949 µM) was 46.2% and the viability, T/C (second compound 0.00949 µM, first compound 0.3 µM) was 31.1%. It also gave a viability, T/C (second compound 0.03 µM, first compound 0.000949 µM) of 106%, a viability, T/C (second compound 0.03 µM, first compound 0.003 µM) of 96.8% and a viability, T/C (second compound 0.03 µM, first compound 0.00949 µM) of 78.2%. It also gave a viability, T/C (second compound 0.03 µM, first compound 0.03 µM) of 65.5%, a viability, T/C (second compound 0.03 µM, first compound 0.0949 µM) of 52.7% and a viability, T/C (second compound 0.03 µM, first compound 0.3 µM) of 27%. For the same molecule, the viability, T/C (second compound 0.0949 µM, first compound 0.000949 µM) was 93.3%, the viability, T/C (second compound 0.0949 µM, first compound 0.003 µM) was 90% and the viability, T/C (second compound 0.0949 µM, first compound 0.00949 µM) was 80.4%. For the same molecule, the viability, T/C (second compound 0.0949 µM, first compound 0.03 µM) was 63.7%, the viability, T/C (second compound 0.0949 µM, first compound 0.0949 µM) was 45.3% and the viability, T/C (second compound 0.0949 µM, first compound 0.3 µM) was 25.5%. It also gave a viability, T/C (second compound 0.3 µM, first compound 0.000949 µM) of 92.4%, a viability, T/C (second compound 0.3 µM, first compound 0.003 µM) of 89.7% and a viability, T/C (second compound 0.3 µM, first compound 0.00949 µM) of 72.2%. It also gave a viability, T/C (second compound 0.3 µM, first compound 0.03 µM) of 57.3%, a viability, T/C (second compound 0.3 µM, first compound 0.0949 µM) of 39.1% and a viability, T/C (second compound 0.3 µM, first compound 0.3 µM) of 21.4%.

Molecule CCC(CC)c1cc(NC2CCC(N)C2)n2nccc2n1 (stereo unspecified) + C=CC(=O)N1CCN(c2nc(OCC3CCCN3C)nc3c(F)c(-c4nc(N)cc(C)c4C(F)(F)F)c(Cl)cc23)C(C)C1 has an IC50 (second compound 0.00316 µM) of 2.73 µM, an IC50 (second compound 0.01 µM) of 2.7 µM and an IC50 (second compound 0.0316 µM) of 2.77 µM. For the same molecule, the IC50 (second compound 0.1 µM) was 2.47 µM, the IC50 (second compound 0.316 µM) was 2.46 µM and the IC50 (second compound 1 µM) was 2.34 µM. The viability, T/C (second compound 0.00316 µM, first compound 0.0316 µM) was 98.2%, the viability, T/C (second compound 0.00316 µM, first compound 0.1 µM) was 98.6% and the viability, T/C (second compound 0.00316 µM, first compound 0.316 µM) was 106%. The viability, T/C (second compound 0.00316 µM, first compound 1 µM) was 93.9%, the viability, T/C (second compound 0.00316 µM, first compound 3.16 µM) was 43.6% and the viability, T/C (second compound 0.00316 µM, first compound 10 µM) was 29.6%. It also gave a viability, T/C (second compound 0.01 µM, first compound 0.0316 µM) of 97.2%, a viability, T/C (second compound 0.01 µM, first compound 0.1 µM) of 109% and a viability, T/C (second compound 0.01 µM, first compound 0.316 µM) of 102%. For the same molecule, the viability, T/C (second compound 0.01 µM, first compound 1 µM) was 96%, the viability, T/C (second compound 0.01 µM, first compound 3.16 µM) was 42.6% and the viability, T/C (second compound 0.01 µM, first compound 10 µM) was 27.8%. The viability, T/C (second compound 0.0316 µM, first compound 0.0316 µM) was 96%, the viability, T/C (second compound 0.0316 µM, first compound 0.1 µM) was 104% and the viability, T/C (second compound 0.0316 µM, first compound 0.316 µM) was 106%. The viability, T/C (second compound 0.0316 µM, first compound 1 µM) was 101%, the viability, T/C (second compound 0.0316 µM, first compound 3.16 µM) was 43.3% and the viability, T/C (second compound 0.0316 µM, first compound 10 µM) was 29.9%. It also gave a viability, T/C (second compound 0.1 µM, first compound 0.0316 µM) of 97.5%, a viability, T/C (second compound 0.1 µM, first compound 0.1 µM) of 95.9% and a viability, T/C (second compound 0.1 µM, first compound 0.316 µM) of 102%. It also gave a viability, T/C (second compound 0.1 µM, first compound 1 µM) of 98.2%, a viability, T/C (second compound 0.1 µM, first compound 3.16 µM) of 36.8% and a viability, T/C (second compound 0.1 µM, first compound 10 µM) of 26.5%. It also gave a viability, T/C (second compound 0.316 µM, first compound 0.0316 µM) of 104%, a viability, T/C (second compound 0.316 µM, first compound 0.1 µM) of 112% and a viability, T/C (second compound 0.316 µM, first compound 0.316 µM) of 109%. The viability, T/C (second compound 0.316 µM, first compound 1 µM) was 105%, the viability, T/C (second compound 0.316 µM, first compound 3.16 µM) was 34.6% and the viability, T/C (second compound 0.316 µM, first compound 10 µM) was 28.5%. For the same molecule, the viability, T/C (second compound 1 µM, first compound 0.0316 µM) was 98.6%, the viability, T/C (second compound 1 µM, first compound 0.1 µM) was 100% and the viability, T/C (second compound 1 µM, first compound 0.316 µM) was 109%. The viability, T/C (second compound 1 µM, first compound 1 µM) was 111%, the viability, T/C (second compound 1 µM, first compound 3.16 µM) was 30.7% and the viability, T/C (second compound 1 µM, first compound 10 µM) was 27.6%.

CC1(O)CCCC1n1c(=O)c(C(F)F)cc2cnc(NC3CCN(S(C)(=O)=O)CC3)nc21 (stereo unspecified) + CCn1c(-c2cc(N3CCN(C)CC3)cnc2C(C)OC)c2c3cc(ccc31)-c1csc(n1)CC(NC(=O)C1CC1C)C(=O)N1CCCC(N1)C(=O)OCC(C)(C)C2 was tested, and the IC50 (second compound 0.000949 µM) was > 10 µM, the IC50 (second compound 0.003 µM) was > 10 µM and the IC50 (second compound 0.00949 µM) was 9.45 µM. The IC50 (second compound 0.03 µM) was > 10 µM, the IC50 (second compound 0.0949 µM) was < 0.0316 µM and the IC50 (second compound 0.3 µM) was < 0.0316 µM. The viability, T/C (second compound 0.000949 µM, first compound 0.0316 µM) was 91.1%, the viability, T/C (second compound 0.000949 µM, first compound 0.1 µM) was 94.2% and the viability, T/C (second compound 0.000949 µM, first compound 0.316 µM) was 89.8%. The viability, T/C (second compound 0.000949 µM, first compound 1 µM) was 91.6%, the viability, T/C (second compound 0.000949 µM, first compound 3.16 µM) was 94.1% and the viability, T/C (second compound 0.000949 µM, first compound 10 µM) was 61.7%. The viability, T/C (second compound 0.003 µM, first compound 0.0316 µM) was 102%, the viability, T/C (second compound 0.003 µM, first compound 0.1 µM) was 91.7% and the viability, T/C (second compound 0.003 µM, first compound 0.316 µM) was 90%. For the same molecule, the viability, T/C (second compound 0.003 µM, first compound 1 µM) was 78.7%, the viability, T/C (second compound 0.003 µM, first compound 3.16 µM) was 87.3% and the viability, T/C (second compound 0.003 µM, first compound 10 µM) was 62.8%. It also gave a viability, T/C (second compound 0.00949 µM, first compound 0.0316 µM) of 78.8%, a viability, T/C (second compound 0.00949 µM, first compound 0.1 µM) of 75.4% and a viability, T/C (second compound 0.00949 µM, first compound 0.316 µM) of 80.6%. For the same molecule, the viability, T/C (second compound 0.00949 µM, first compound 1 µM) was 77.9%, the viability, T/C (second compound 0.00949 µM, first compound 3.16 µM) was 72.7% and the viability, T/C (second compound 0.00949 µM, first compound 10 µM) was 48.8%. The viability, T/C (second compound 0.03 µM, first compound 0.0316 µM) was 62.6%, the viability, T/C (second compound 0.03 µM, first compound 0.1 µM) was 58.5% and the viability, T/C (second compound 0.03 µM, first compound 0.316 µM) was 64.9%. For the same molecule, the viability, T/C (second compound 0.03 µM, first compound 1 µM) was 59.4%, the viability, T/C (second compound 0.03 µM, first compound 3.16 µM) was 66% and the viability, T/C (second compound 0.03 µM, first compound 10 µM) was 44.2%. For the same molecule, the viability, T/C (second compound 0.0949 µM, first compound 0.0316 µM) was 46.7%, the viability, T/C (second compound 0.0949 µM, first compound 0.1 µM) was 44% and the viability, T/C (second compound 0.0949 µM, first compound 0.316 µM) was 47.3%. For the same molecule, the viability, T/C (second compound 0.0949 µM, first compound 1 µM) was 42.4%, the viability, T/C (second compound 0.0949 µM, first compound 3.16 µM) was 45.7% and the viability, T/C (second compound 0.0949 µM, first compound 10 µM) was 35.1%. It also gave a viability, T/C (second compound 0.3 µM, first compound 0.0316 µM) of 31.2%, a viability, T/C (second compound 0.3 µM, first compound 0.1 µM) of 37% and a viability, T/C (second compound 0.3 µM, first compound 0.316 µM) of 33.4%. The viability, T/C (second compound 0.3 µM, first compound 1 µM) was 38.8%, the viability, T/C (second compound 0.3 µM, first compound 3.16 µM) was 38.1% and the viability, T/C (second compound 0.3 µM, first compound 10 µM) was 24.1%.
